{"source": "patent US4514404A", "about": "“Process for obtaining complex of 3-methoxy-N-methylmorphinan with 7-theophyllineacetic acid (1:2)” (Prodes, S.A., priority 1982, dated 1985)", "key": {"cough": {"test_system": "cough", "assay": "antitussive activity: cough induced by sulfuric acid atmosphere (Chen et al. 1960), oral", "type": "in vivo, guinea pig (male)", "conditions": "for inhibition of the cough (individual animal) / number of coughs after administration (individual animal) / inhibition of the cough, average value: one hour after administration; for inhibition of the cough (individual animal) / number of coughs after administration (individual animal): individual animals", "procedure": "This activity has been compared with the activity of codeine and dextromethorphan by the experimental mode of Chen, J.Y.P. and col. (1960), consisting in exciting guinea pigs subjected to an atmosphere of sulfuric acid to cough.\nThere are used guinea pig males having a weight of 300-400 grs which are treated in respective lots, with codeine (40 mg/kg.; n=6), dextromethorphan (40 mg/kg.; n=6), theophane (20 mg/kg.; n=5) and theophane (40 mg/kg.; n=6), wherein \"n\" signifies the number of animals tested in the respective lots and the other data in the parentheses refers to the dosage amount, e.g. 40 mg/kg. The numbers of occurrences of coughing of each animal before and one hour after the oral administration of the drug are measured.\nIn Table I are detailed the results obtained by the experiment, before and after the administration of the drug as well as the percentage of inhibition of the cough."}, "[1]": {"test_system": "auxotrophic S.typhimurium strains", "assay": "mutagenic effect (Ames)", "type": "cell-based", "conditions": "six dosages in DMSO, presence and absence of metabolic activation", "text": "The possible mutagenic effect of theophane has been evaluated according to the text described by Ames, B. N. and cols (1975) using auxotrophic S.typhimurium strains for the histidine. The product has been studied at six different dosages, dissolved in DMSO, and in the presence and absence of a system of metabolic activation and in front of positive controls."}, "cardiovascular system": {"test_system": "cardiovascular system", "assay": "cardiovascular activity (technique of Smith, 1961)", "type": "in vivo, guinea pig (male)", "conditions": "0.5 to 10 mg/kg", "text": "The cardiovascular activity (technique of Smith, 1961) and the neuropharmacological activity (Irwin test) of the theophane product have been studied respectively in guinea pigs and rats (males)."}, "mouse": {"test_system": "mouse", "assay": "acute toxicity in the mouse (Litchfield and Wilcoxon)", "type": "in vivo", "text": "(§1) The acute toxicity of theophane has been studied orally and i.p. in the mouse and in the rat. The LD50 and the limits of reliance have been determined by the technique of Litchfield and Wilcoxon. Table III summarizes the values of the obtained LD50, as well as of LD0."}, "[2]": {"test_system": "Sprague-Dawley rats and fetuses of the first generation", "assay": "fetal and teratogenous toxicity, oral during organogenesis", "type": "in vivo, rat (Sprague-Dawley)", "conditions": "20, 65 and 130 mg/kg/day oral"}, "rat": {"test_system": "rat", "assay": "acute toxicity in the rat (Litchfield and Wilcoxon)", "type": "in vivo", "text": "as §1"}, "Wistar rats": {"test_system": "Wistar rats", "assay": "subacute toxicity, repeated oral administration over 1 month", "type": "in vivo, rat (Wistar)", "conditions": "20, 60 and 120 mg/kg/day oral, both sexes", "procedure": "The subacute toxicity of theophane has been studied after repeated oral administrations over a period of 1 month in Wistar rats of both sexes. The theophane dosage used was 20 mg/kg/day, 60 mg/kg/day and 120 mg/kg/day. One lot of control animals received only excipient."}, "[3]": {"test_system": "tracheal chain of guinea pigs", "assay": "bronchodilatory activity in vitro, tracheal chain of guinea pigs (Castillo and de Beer), histamine as bronchoconstrictor", "design": "species or system guinea pig (male)", "conditions": "for time elapsed until obtaining an activity of 50%: 5×10^-4 molar", "text": "The bronchodilatory activity \"in vitro\" of the compound of the present invention has been studied, using the method of tracheal chain of guinea pigs, described by J. C. Castillo and E. J. J. de Beer in Pharmacol.Expt. Therap., 90, 104. The trachea of male guinea pigs having a weight of 250-350 grs were extracted; then the rings are sectioned, always endeavoring that the trachea is bathed by the corresponding perfusion liquid and under oxygenation conditions for joining posteriorly the tracheal rings by means of a silk yarn forming the chain giving response to the drugs to be administered. The chain is placed in the bath of organs fixed to the registering arm of a chymograph. The bath is to be maintained at the constant temperature of 37.5° C. and using, as the liquid, the Krebs-Hanselett solution.\nAs a bronchoconstrictor drug, there is used histamine at a concentration of 1×10^-5 molar.\nThe bronchodilatory activity of theophane and theophylline have been compared, for various dosages, and the results obtained are presented in Table II."}, "[4]": {"conditions": "40 mg/kg oral, n=6, codeine p < 0.001, dextromethorphan and theophane p < 0.005"}}, "note": "Several values for one entry are separate records, joined by “and”; a condition that tells them apart may be missing. Equal entries are not always repeated. Entries after “also recorded” stand apart in the source; their conditions may differ."}
{"smiles": "COc1ccc2c3c1O[C@H]1[C@@H](O)C=C[C@H]4[C@@H](C2)N(C)CC[C@@]341", "note": "[Codeine, reference compound]", "values": [{"measurement": "inhibition of the cough (individual animal)", "setting": "cough; 40 mg/kg oral", "result": "71.4% and 100.0% and 81.8%"}, {"measurement": "number of coughs after administration (individual animal)", "setting": "cough; 40 mg/kg oral", "result": "2 and 0"}, {"measurement": "inhibition of the cough, average value", "setting": "cough; [4]", "result": "92.2 ± 12.5", "unit": "%"}]}
{"smiles": "COc1ccc2c(c1)[C@]13CCCC[C@@H]1[C@H](C2)N(C)CC3", "note": "[Dextromethorphan, reference compound]", "values": [{"measurement": "inhibition of the cough (individual animal)", "setting": "cough; 40 mg/kg oral", "result": "33.3% and 60.0% and 100.0% and 75.0% and 50.0%"}, {"measurement": "number of coughs after administration (individual animal)", "setting": "cough; 40 mg/kg oral", "result": "4 and 6 and 0 and 1"}, {"measurement": "inhibition of the cough, average value", "setting": "cough; [4]", "result": "69.7 ± 27.0", "unit": "%"}]}
{"smiles": "COc1ccc2c(c1)[C@@]13CCCC[C@H]1[C@@H](C2)N(C)CC3.Cn1c(=O)c2c(ncn2CC(=O)O)n(C)c1=O.Cn1c(=O)c2c(ncn2CC(=O)O)n(C)c1=O", "note": "[Theophane, complex of 3-methoxy-N-methylmorphinan with 7-theophyllineacetic acid (1:2)]", "values": [{"measurement": "mutagenic activity", "setting": "[1]", "result": "does not have any mutagenic activity"}, {"measurement": "reversion increase", "setting": "[1]", "result": "No reversion increase could be observed"}, {"measurement": "effects on the cardiovascular system", "setting": "cardiovascular system", "result": "do not produce effects on the cardiovascular system"}, {"measurement": "LD0", "setting": "mouse; i.p.", "result": 102.3, "unit": "mg/kg"}, {"measurement": "LD0", "setting": "mouse; oral", "result": 182.2, "unit": "mg/kg"}, {"measurement": "teratogenous effects", "setting": "[2]", "result": "does not induce teratogenous effects"}, {"measurement": "toxic effects to gestating females and their offspring", "setting": "[2]", "result": "does not produce toxic effects to the gestating females and their offspring"}, {"measurement": "LD0", "setting": "rat; i.p.", "result": 156.4, "unit": "mg/kg"}, {"measurement": "LD0", "setting": "rat; oral", "result": 204.4, "unit": "mg/kg"}, {"measurement": "subacute toxicity (mortality, weight, diet consumption, hematic, biochemical, urinary parameters, histopathology)", "setting": "Wistar rats", "result": "null toxicity"}, {"measurement": "bronchodilatory activity in vitro compared with theophylline (in words)", "setting": "[3]", "result": "bronchodilatory activity \"in vitro\" at lower concentrations than theophylline"}, {"measurement": "bronchodilatory activity", "setting": "[3]; 1 × 10^-3 molar, 1000 µM", "result": 100, "unit": "%"}, {"measurement": "bronchodilatory activity", "setting": "[3]; 1 × 10^-4 molar, 100 µM", "result": 54.6, "unit": "%"}, {"measurement": "bronchodilatory activity", "setting": "[3]; 1 × 10^-5 molar, 10 µM", "result": 0, "unit": "%"}, {"measurement": "bronchodilatory activity", "setting": "[3]; 2 × 10^-4 molar, 200 µM", "result": 37.5, "unit": "%"}, {"measurement": "time elapsed until obtaining an activity of 50%", "setting": "[3]", "result": 280, "unit": "s"}, {"measurement": "bronchodilatory activity", "setting": "[3]; 5 × 10^-4 molar, 500 µM", "result": 85.3, "unit": "%"}, {"measurement": "bronchodilatory activity", "setting": "[3]; 5 × 10^-5 molar, 50 µM", "result": 8.3, "unit": "%"}, {"measurement": "inhibition of the cough (individual animal)", "setting": "cough; 20 mg/kg oral", "result": "33.3% and 28.57% and 66.6% and 60.0%"}, {"measurement": "number of coughs after administration (individual animal)", "setting": "cough; 20 mg/kg oral", "result": "4 and 10 and 1 and 2"}, {"measurement": "inhibition of the cough, average value", "setting": "cough; 20 mg/kg oral, n=5, p < 0.005", "result": "44.35 ± 17.5", "unit": "%"}, {"measurement": "inhibition of the cough (individual animal)", "setting": "cough; 40 mg/kg oral", "result": "60.0% and 72.2% and 30.7% and 100.0%"}, {"measurement": "number of coughs after administration (individual animal)", "setting": "cough; 40 mg/kg oral", "result": "2 and 5 and 9 and 0 and 4"}, {"measurement": "inhibition of the cough, average value", "setting": "cough; [4]", "result": "70.5 ± 26.6", "unit": "%"}, {"measurement": "antitussive activity (in words)", "setting": "cough; oral, 20 and 40 mg/kg, guinea pigs", "result": "potent antitussive activity; also recorded: antitussive activity which is significant with regard to its proper control"}, {"measurement": "antitussive activity based on the 3-methoxy-N-methylmorphinan content, compared with dextromethorphan", "setting": "cough; referring to the weight index, 40 mg/kg", "result": "greater antitussive activity"}]}
{"smiles": "Cn1c(=O)c2[nH]cnc2n(C)c1=O", "note": "[Theophylline]", "values": [{"measurement": "time elapsed until obtaining an activity of 50%", "setting": "[3]", "result": 180, "unit": "s"}, {"measurement": "inhibition at 1000 µM", "setting": "[3]; Cavia porcellus, 1 × 10^-3 molar", "result": 100, "unit": "%"}, {"measurement": "inhibition at 100 µM", "setting": "[3]; Cavia porcellus, 1 × 10^-4 molar", "result": 10.4, "unit": "%"}, {"measurement": "inhibition at 10 µM", "setting": "[3]; Cavia porcellus, 1 × 10^-5 molar", "result": 0, "unit": "%"}, {"measurement": "inhibition at 200 µM", "setting": "[3]; Cavia porcellus, 2 × 10^-4 molar", "result": 30, "unit": "%"}, {"measurement": "inhibition at 20 µM", "setting": "[3]; Cavia porcellus, 2 × 10^-5 molar", "result": 6.25, "unit": "%"}, {"measurement": "inhibition at 500 µM", "setting": "[3]; Cavia porcellus, 5 × 10^-4 molar", "result": 59.1, "unit": "%"}]}
